Data: patent EP4800018A1, “PAN-KRAS INHIBITOR AND USE THEREOF IN MEDICINES” (Betta Pharmaceuticals Co., Ltd., priority 2023, dated 2025)
Where two headings read alike, the source gives them in different places.

Experiments:
Format in all cases: cell-based
[1] = target: T1, KRAS G12V-cRAF (Homo sapiens, UniProt P01116, G12V); test: Cellular KRAS G12V-cRAF Binding Inhibition Assay (NanoBRET, AD293 stable cells); conditions: 3 h incubation, read-out: NanoBRET KRAS G12V
T1 construct: expressed in transfected cells
T1 sequence (P01116 1-188 isoform P01116-2 G12V): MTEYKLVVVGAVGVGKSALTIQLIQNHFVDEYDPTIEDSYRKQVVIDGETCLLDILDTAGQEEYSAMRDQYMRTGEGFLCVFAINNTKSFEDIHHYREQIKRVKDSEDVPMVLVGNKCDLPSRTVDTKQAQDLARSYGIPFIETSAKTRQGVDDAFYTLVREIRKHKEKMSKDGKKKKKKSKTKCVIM
Procedure, shortened: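 Binding measured as BRET between NanoLuc and HaloTag-bound NanoBRET 618 ligand (added overnight) in stably expressing AD293 cells. Signals were converted to percent inhibition against max and blank wells and fitted for IC50.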

[2] = test system: KRAS-G12V mutant tumor cells SW620; test: Cell Proliferation Inhibition Assay (SW620), Cell-titer GLO, 96 h; conditions: Homo sapiens, SW-620, 96 h, read-out: SW620(G12V)
Procedure, shortened: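 Readout: Cell-titer GLO luminescence after 96 h at 37°C, converted to percent inhibition against 0.5% DMSO and blank controls, with IC50 from curve fit. Low-attachment SW620 cultures (1×10^3 cells/well) were dosed at 10000–0.03 nM final.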

[3] = target: T2, KRAS G12D-cRAF (Homo sapiens, UniProt P01116, G12D); test: Cellular KRAS G12D-cRAF Binding Inhibition Assay (NanoBRET, AD293 stable cells); conditions: 3 h incubation, read-out: NanoBRET KRAS G12D
T2 construct: expressed in transfected cells
T2 sequence (P01116 1-188 isoform P01116-2 G12D): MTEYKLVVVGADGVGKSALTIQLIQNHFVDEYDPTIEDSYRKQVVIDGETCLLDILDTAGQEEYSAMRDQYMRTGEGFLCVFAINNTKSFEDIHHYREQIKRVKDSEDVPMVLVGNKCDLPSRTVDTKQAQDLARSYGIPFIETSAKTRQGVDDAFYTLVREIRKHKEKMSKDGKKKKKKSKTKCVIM
Procedure, shortened: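 IC50 values derive from fitted % inhibition, normalised to maximum signal and medium-only blank. The read-out is NanoBRET between KRAS G12D-NanoLuc (donor) and cRAF RBD-HaloTag labelled with the 618 ligand (acceptor), in live stably transfected AD293 cells at 1×10^4/well.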

[4] = test system: KRAS-G12D mutant tumor cells AGS; test: Cell Proliferation Inhibition Assay (AGS), Cell-titer GLO, 96 h; conditions: Homo sapiens, AGS, 96 h, read-out: AGS(G12D)
Procedure, shortened: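 Inhibition % was derived from CellTiter-Glo luminescence (max minus measured, over max minus blank) and fitted to give IC50. Cells were KRAS-G12D AGS in low-attachment wells, treated for 96 h at 37°C.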

[5] = SW620 cells, 96 h incubation, Cell-titer GLO
[6] = AGS cells, 96 h incubation, Cell-titer GLO

Compound | IC50 [1] [nM] | IC50 [2, 5] [nM] | IC50 [3] [nM] | IC50 [4, 6] [nM] | IC50 [2] [nM] | IC50 [4] [nM]
CC1OCCCn2c(c3c4cc(ccc42)-c2csc(n2)CC(NC(=O)C2CC2C(F)F)C(=O)N2CCCC(N2)C(=O)OCC(C)(C)C3)-c2cc(N3CCC(N(C)C)CC3)cnc21 [Example 105, (1S,2S)-2-(difluoromethyl)-N-((1^5S,6^3S,4S,Z)-1^2-(4-(dimethylamino)piperidin-1-yl)-1^5,10,10-trimethyl-5,7-dioxo-1^8,1^9,6^1,6^2,6^3,6^4,6^5,6^6-octahydro-1^5H,1^7H-8-oxa-1(13,15)-pyrido[3',2':7,8][1,5]oxazonino[5,6-a]indola-2(4,2)-thiazola-6(1,3)-pyridazinacycloundecaphane-4-yl)cyclopropane-1-carboxamide] | 16.6 | 0.24 | 4.55 | 0.69 | – | –
CC1OCCCn2c(c3c4cc(ccc42)-c2csc(n2)CC(NC(=O)C2CC2C(F)F)C(=O)N2CCCC(N2)C(=O)OCC(C)(C)C3)-c2cc(N3CCC(N4CCOCC4)CC3)cnc21 [Example 106, (1S,2S)-2-(difluoromethyl)-N-((1^5S,6^3S,4S,Z)-1^5,10,10-trimethyl-1^2-(4-morpholinopiperidin-1-yl)-5,7-dioxo-1^8,1^9,6^1,6^2,6^3,6^4,6^5,6^6-octahydro-1^5H,1^7H-8-oxa-1(13,15)-pyrido[3',2':7,8][1,5]oxazonino[5,6-a]indola-2(4,2)-thiazola-6(1,3)-pyridazinacycloundecaphane-4-yl)cyclopropane-1-carb oxamide] | 27.4 | 0.24 | 6.39 | 0.86 | – | –
CC1OCCCn2c(c3c4cc(ccc42)-c2csc(n2)CC(NC(=O)C2CC2C(F)F)C(=O)N2CCCC(N2)C(=O)OCC(C)(C)C3)-c2cc(N3CCN(C4CN(C)C4)CC3)cnc21 [Example 108, (1S,2S)-2-(difluoromethyl)-N-((1^5S,6^3S,4S,Z)-1^5,10,10-trimethyl-1^2-(4-(1-methylazetidin-3-yl)piperazin-1-yl)-5,7-dioxo-1^8, 1^9,6^1,6^2,6^3,6^4,6^5 ,6^6-octahydro-1^5H,1^7H-8-oxa-1(13,15)-pyrido[3',2':7,8][1,5]oxazonino[5,6-a]indola-2(4,2)-thiazola-6(1,3)-pyridazinacycloundecaphane-4-yl)cycloprop ane-1-carboxamide] | 37.9 | – | 6.1 | – | 0.28 | 0.58
CC1OCCCn2c(c3c4cc(ccc42)-c2csc(n2)CC(NC(=O)C2CC2C(F)F)C(=O)N2CCCC(N2)C(=O)OCC(C)(C)C3)-c2cc(N3CCN(C4CCOCC4)CC3)cnc21 [Example 109, (1S,2S)-2-(difluoromethyl)-N-((1^5S,6^3S,4S,Z)-1^5,10,10-trimethyl-5,7-dioxo-1^2-(4-(tetrahydro-2H -pyran-4-yl)piperazin-1-yl)-18, 1^9,6^1,6^2,6^3 ,6^4,6^5,6^6-octahydro-1^5H,1^7H-8-oxa-1(13,15)-pyrido[3',2' :7,8][1,5]oxazonino[5,6-a]indola-2(4,2)-thiazola-6(1,3)-pyridazinacycloundecaphane-4-yl)cyclo propane-1-carboxamide] | 14.9 | 0.2 | 6.2 | 1.02 | – | –
CC1OCCCn2c(c3c4cc(ccc42)-c2csc(n2)CC(NC(=O)C2CC2C(F)F)C(=O)N2CCCC(N2)C(=O)OCC(C)(C)C3)-c2cc(N3CCN4CCOCC4C3)cnc21 [Example 110, (1S,2S)-2-(difluoromethyl)-N-((1^5S,6^3S,4S,Z)-1^2-((S)-hexahydropyrazino[2,1-c][1,4]oxazin-8(1 H)-yl)-1^5,10,10-trimethyl-5,7-dioxo-1^8,1^9,6^1,6^2,6^3,6^4,6^5,6^6-octahydro-1^5H,1^7H-8-oxa-1(13,15)-pyrido[3',2':7,8][1,5]oxazonino[5,6-a]indola-2(4,2)-thiazola-6(1,3)-pyridazinacycloundecaphane-4-yl)cyclopropane-1-carboxamide] | 14 | 0.15 | 4.17 | 1.12 | – | –
CC1OCCCn2c(c3c4cc(ccc42)-c2csc(n2)CC(NC(=O)C2CC2C(F)F)C(=O)N2CCCC(N2)C(=O)OCC(C)(C)C3)-c2cc(N3CCNCC3)cnc21 [Example 112, (1S,2S)-2-(difluoromethyl)-N-((1^5S,6^3S,4S,Z)-1^5,10,10-trimethyl-5,7-dioxo-1^2-(piperazin-1-yl)-1 ^8,1^9,6^1,6^2,6^3,6^4,6^5,6^6-octahydro-1^5H,1^7H-8-oxa-1(13,15)-pyrido[3',2':7,8][1,5]oxazonino[5,6-a]indola-2(4,2)-thiazola-6(1,3)-pyridazinacycloundecaphane-4-yl)cyclopropane-1-carboxamide] | 34.2 | 0.34 | 8.39 | 2.68 | – | –
COC1CCN(c2cnc3c(c2)-c2c4c5cc(ccc5n2CCCOC3C)-c2csc(n2)CC(NC(=O)C2CC2C(F)F)C(=O)N2CCCC(N2)C(=O)OCC(C)(C)C4)CC1 [Example 113, (1S,2S)-2-(difluoromethyl)-N-((1^5S,6^3S,4S,Z)-1^2-(4-methoxypiperidin-1-yl)-1^5,10,10-trimethyl-5,7-dioxo-1^8,1^9,6^1,6^2,6^3,6^4,6^5,6^6-octahydro-1^5H, 1^7H-8-oxa-1(13,15)-pyrido[3',2':7,8][1,5]oxazonino[5,6-alindola-2(4,2)-thiazola-6(1,3)-pyridazinacycloundecaphane-4-yl)cyclopropane-1-carbox amide] | 23.9 | 0.54 | 7.1 | 3.6 | – | –
CC1OCCCn2c(c3c4cc(ccc42)-c2csc(n2)CC(NC(=O)C2CC2C(F)F)C(=O)N2CCCC(N2)C(=O)OCC(C)(C)C3)-c2cc(N3CCC(F)(F)CC3)cnc21 [Example 114, (1S,2S)-2-(difluoromethyl)-N-((1^5S,6^3S,4S,Z)-1^2-(4,4-difluoropiperidin-1-yl)-1^5,10,10-trimethyl-5,7-dioxo-1^8,1^9,6^1,6^2,6^3,6^4,6^5,6^6-octahydro-1^5H, 1^7H-8-oxa-1(13,15)-pyrido[3',2':7,8][1,5]oxazonino[5,6-alindola-2(4,2)-thiazola-6(1,3)-pyridazinacycloundecaphane-4-yl)cyclopropane-1-carbox amide] | 65.8 | 3.4 | 19.4 | 15.7 | – | –
CC1OCCCn2c(c3c4cc(ccc42)-c2csc(n2)CC(NC(=O)C2CC2C(F)F)C(=O)N2CCCC(N2)C(=O)OCC(C)(C)C3)-c2cc(N3CC(N4CCOCC4)C3)cnc21 [Example 115, (1S,2S)-2-(difluoromethyl)-N-((1^5S,6^3S,4S,Z)-1^5,10,10-trimethyl-1^2-(3-morpholinoazetidin-1-yl) -5,7-dioxo-1^8,1^9,6^1,6^2,6^3,6^4,6^5,6^6-octahydro-1^5H,1^7H-8-oxa-1(13,15)-pyrido[3',2':7,8][1,5]oxazonino[5,6-a]indola-2(4,2)-thiazola-6(1,3)-pyridazinacycloundecaphane-4-yl)cyclopropane-1-carbox amide] | 16.3 | 0.9 | 4.28 | 1.72 | – | –
CC1OCCCn2c(c3c4cc(ccc42)-c2csc(n2)CC(NC(=O)C24CC(C)(C2)C4)C(=O)N2CCCC(N2)C(=O)OCC(C)(C)C3)-c2cc(N3CCOCC3)cnc21 (stereo not drawn) [Example 116, 3-methyl-N-((1^5S6^3S4S,Z)-1^5,10,10-trimethyl-1^2-morpholino-5,7-dioxo-1^8,1^9,6^1,6^2,6^3,6^4,6^5,6^6-octahydro-1^5H,1^7H-8-oxa-1(13,15)-pyrido[3',2':7,8][1,5]oxazonino[5,6-a]indola-2(4,2)-thiazola-6 (1,3)-pyridazinacycloundecaphane-4-yl)bicyclo[1.1.1]pentane-1-carboxamide] | 37.8 | 4.1 | 9.57 | 8.27 | – | –
CC1OCCCn2c(c3c4cc(ccc42)-c2csc(n2)CC(NC(=O)C2CC2C(F)F)C(=O)N2CCCC(N2)C(=O)OCC(C)(C)C3)-c2cc(N3CCCC(N(C)C)C3)cnc21 [Example 117, (1S,2S)-2-(difluoromethyl)-N-((1^5S,6^3S,4S,Z)-1^2-(3-(dimethylamino)piperidin-1-yl)-1^5,10,10-trimethyl-5,7-dioxo-1^8,1^9,6^1,6^2,6^3,6^4,6^5,6^6-octahydro-1^5H,1^7H-8-oxa-1(13,15)-pyrido[3',2':7,8][1,5]oxazonino[5,6-a]indola-2(4,2)-thiazola-6(1,3)-pyridazinacycloundecaphane-4-yl)cyclopropane-1-carboxamide] | 8.1 | 0.21 | 1.8 | 0.86 | – | –
CC1OCCCn2c(c3c4cc(ccc42)-c2csc(n2)CC(NC(=O)C2CC2C)C(=O)N2CCCC(N2)C(=O)OCC(C)(C)C3)-c2cc(N3CCOCC3)cnc21 [Example 118, (1S,2S)-2-methyl-N-((1^5S,6^3S,4S,Z)-1^5,10,10-trimethyl-1^2-morpholino-5,7-dioxo-1^8,1^9,6^1,6^2,6^3,6 ^4,6^5,6^6-octahydro-1^5H,1^7H-8-oxa-1(13,15)-pyrido[3',2':7,8][1,5]oxazonino[5,6-a]indola-2(4,2)-thiazola-6(1,3)-pyridazinacycloundecaphane-4-yl)cyclopropane-1-carboxamide] | 30.6 | 1.5 | 7.2 | 3.77 | – | –
